Results as given in BindingDB's records for doi:10.1016/j.bmcl.2003.08.070 (Wyeth Research, 2003).

Assays:
[1] = target: T1, Leukotriene B4 receptor 1 (Homo sapiens, UniProt Q15722); test: ChEBML_99664
Excerpt: (§1) Inhibitory concentration against LTB4 receptor determined in human neutrophils PMN assay

[2] = target: Leukotriene B4 receptor 1 (Mus musculus) (UniProt O88855); test: Inhibitory concentration against LTB4 receptor determined in mast cell line MC-9 assay
[3] = target: T1, Leukotriene B4 receptor 1; test: as §1

T1 sequence (Q15722 whole entry): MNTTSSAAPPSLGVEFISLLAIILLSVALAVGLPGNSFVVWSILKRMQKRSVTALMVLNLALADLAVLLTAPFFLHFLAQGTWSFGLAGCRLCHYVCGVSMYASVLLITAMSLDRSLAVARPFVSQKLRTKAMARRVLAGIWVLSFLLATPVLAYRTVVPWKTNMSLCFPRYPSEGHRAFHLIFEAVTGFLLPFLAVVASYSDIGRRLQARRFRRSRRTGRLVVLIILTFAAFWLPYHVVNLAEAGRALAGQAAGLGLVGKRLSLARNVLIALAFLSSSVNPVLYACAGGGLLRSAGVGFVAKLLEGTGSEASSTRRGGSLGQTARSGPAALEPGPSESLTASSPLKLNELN
Sequence of Leukotriene B4 receptor 1 (Mus musculus) (O88855 whole entry, looked up): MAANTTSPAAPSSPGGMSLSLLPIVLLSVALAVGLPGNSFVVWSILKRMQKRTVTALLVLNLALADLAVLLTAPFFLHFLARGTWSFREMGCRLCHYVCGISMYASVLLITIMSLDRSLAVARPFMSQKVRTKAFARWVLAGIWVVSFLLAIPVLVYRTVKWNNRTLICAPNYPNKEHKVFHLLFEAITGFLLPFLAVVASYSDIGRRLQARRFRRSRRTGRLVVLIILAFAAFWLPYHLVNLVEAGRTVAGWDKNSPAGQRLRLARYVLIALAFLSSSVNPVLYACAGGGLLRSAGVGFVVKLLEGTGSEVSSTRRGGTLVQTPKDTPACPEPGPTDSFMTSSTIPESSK

Row | Structure (SMILES) | IC50 [1] [µM] | IC50 [2] [µM] | IC50 [3] [µM]
1 | COc1cc(C(=O)O)ccc1Cc1cn(C(c2ccccc2)c2ccccc2)c2ccc(Br)cc12 [4-(1-Benzhydryl-5-bromo-1H-indol-3-ylmethyl)-3-methoxy-benzoic acid] | 0.4 | 1.1 | –
2 | COc1cc(C(=O)O)ccc1Cc1cn(C(c2ccccc2)c2ccccc2)c2ccc([N+](=O)[O-])cc12 [4-(1-Benzhydryl-5-nitro-1H-indol-3-ylmethyl)-3-methoxy-benzoic acid] | – | 2.8 | 0.5
3 | COc1cc(C(=O)O)ccc1Cc1cn(C(c2ccccc2)c2ccccc2)c2ccc(C)cc12 [4-(1-Benzhydryl-5-methyl-1H-indol-3-ylmethyl)-3-methoxy-benzoic acid] | – | – | 0.4
